Reference: patent publication US6440903B1, “Substituted 2,4-diamino-1,3,5-triazines as herbicides” (Bayer Aktiengesellschaft, priority 1996, dated 2002)

Legend:
Type in all cases: in vivo
Datura [1] = assay: Pre-emergence test; details: greenhouse, 500 g of ai./ha, scored after three weeks
Protocol: (§1) Pre-emergence Test Solvent: 5 parts by weight of acetone Emulsifier: 1 part by weight of alkylaryl polyglycol ether To produce a suitable preparation of active compound, 1 part by weight of active compound is mixed with the stated amount of solvent, the stated amount of emulsifier is added and the concentrate is diluted with water to the desired concentration. Seeds of the test plants are sown in normal soil. After about 24 hours, the soil is watered with the preparation of active compound. The amount of water per unit area is advantageously kept constant. The concentration of active compound in the preparation is immaterial, only the application rate of active compound per unit area matters. After three weeks, the degree of damage to the plants is scored visually in % damage in comparison to the development of the untreated control. The figures denote: 0%=no effect (like untreated control) 100%=total destruction

Digitaria [2] = assay: Pre-emergence test; details: greenhouse, 500 g of ai./ha, scored after three weeks
Protocol: as §1

Abutilon = assay: Pre-emergence test; details: greenhouse, scored after three weeks
Protocol: as §1

Matricaria = assay: Pre-emergence test; details: greenhouse, 500 g of ai./ha, scored after three weeks
Protocol: as §1

Maize [3] = assay: Pre-emergence test; details: greenhouse, scored after three weeks
Protocol: as §1

Alopecurus = assay: Pre-emergence test; details: greenhouse, scored after three weeks
Protocol: as §1

Echinochloa = assay: Pre-emergence test; details: greenhouse, 500 g of ai./ha, scored after three weeks
Protocol: as §1

Galium = assay: Pre-emergence test; details: greenhouse, 1000 g of ai./ha, scored after three weeks
Protocol: as §1

Amaranthus [4] = assay: Pre-emergence test; details: greenhouse, 1000 g of ai./ha, scored after three weeks
Protocol: as §1

Setaria [5] = assay: Pre-emergence test; details: greenhouse, 1000 g of ai./ha, scored after three weeks
Protocol: as §1

Sinapis = assay: Pre-emergence test; details: greenhouse, 1000 g of ai./ha, scored after three weeks
Protocol: as §1

Viola = assay: Post-emergence test; details: greenhouse, scored after three weeks
How it was run: (§2)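 Plants of 5-15 cm height were sprayed post-emergence with aqueous dilutions of an acetone/emulsifier concentrate, spray volume 1000 l water/ha. Visual % damage relative to untreated control was recorded three weeks later; 0% = like control, 100% = total destruction.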

Chenopodium = assay: Post-emergence test; details: greenhouse, scored after three weeks
How it was run: as §2

Datura [6] = assay: Post-emergence test; details: greenhouse, 125 g of ai./ha, scored after three weeks
How it was run: as §2

Polygonum = assay: Post-emergence test; details: greenhouse, 125 g of ai./ha, scored after three weeks
How it was run: as §2

Digitaria [7] = assay: Post-emergence test; details: greenhouse, 125 g of ai./ha, scored after three weeks
How it was run: as §2

Setaria [8] = assay: Post-emergence test; details: greenhouse, scored after three weeks
How it was run: as §2

Maize [9] = assay: Post-emergence test; details: greenhouse, 125 g of ai./ha, scored after three weeks
How it was run: as §2

Wheat = assay: Post-emergence test; details: greenhouse, scored after three weeks
How it was run: as §2

Amaranthus [10] = assay: Post-emergence test; details: greenhouse, 250 g of ai./ha, scored after three weeks
How it was run: as §2

Stellaria = assay: Post-emergence test; details: greenhouse, 250 g of ai./ha, scored after three weeks
How it was run: as §2

Which “% damage, Datura” value (Datura [1]) does the source give for `CC(F)c1nc(N)nc(NC(C)c2ccc(Cl)cc2)n1` (stereo not shown) [drawing 93] here?
The value was 100%.

And the “% damage, Digitaria” value (Digitaria [2])?
The value was 100%.

And the “% damage, Abutilon” value (Abutilon; 500 g of ai./ha)?
The value was 100%.

And the “% damage, Matricaria” value (Matricaria)?
Its value is 100%.

What about the “% damage, Maize” value (Maize [3]; 500 g of ai./ha) of the same compound?
Its value is 0%.

What about the “% damage, Alopecurus” value (Alopecurus; 500 g of ai./ha) of the same compound?
The value was 100%.

What about the “% damage, Echinochloa” value (Echinochloa) of the same compound?
Its value is 100%.

`CC(Nc1nc(N)nc(C(C)(C)F)n1)c1ccc(Cl)cc1` (stereo not shown) [drawing 96] was tested. Which “% damage, Galium” value (Galium) did it give?
The value was 100%.

What about the “% damage, Amaranthus” value (Amaranthus [4]) of the same compound?
Its value is 100%.

What about the “% damage, Abutilon” value (Abutilon; 1000 g of ai./ha) of the same compound?
The value was 100%.

What about the “% damage, Setaria” value (Setaria [5]) of the same compound?
The value was 100%.

What about the “% damage, Maize” value (Maize [3]; 1000 g of ai./ha) of the same compound?
The value was 20%.

And the “% damage, Alopecurus” value (Alopecurus; 1000 g of ai./ha)?
Its value is 100%.

And the “% damage, Sinapis” value (Sinapis)?
The value was 100%.

How did the “% damage, Viola” value (Viola; 125 g of ai./ha) turn out when `CC(F)c1nc(N)nc(NC(C)c2ccc(Cl)cc2)n1` (stereo not shown) [drawing 104] was run?
The value was 100%.

What about the “% damage, Chenopodium” value (Chenopodium; 125 g of ai./ha) of the same compound?
Its value is 100%.

What about the “% damage, Datura” value (Datura [6]) of the same compound?
The value was 100%.

And the “% damage, Polygonum” value (Polygonum)?
Its value is 100%.

What about the “% damage, Digitaria” value (Digitaria [7]) of the same compound?
The value was 80%.

What about the “% damage, Setaria” value (Setaria [8]; 125 g of ai./ha) of the same compound?
Its value is 90%.

What about the “% damage, Maize” value (Maize [9]) of the same compound?
The value was 10%.

And the plant injury at 125 g/ha (Wheat; Triticum aestivum, 504 h, 125 g of ai./ha, read-out: % damage, Wheat)?
The plant injury at 125 g/ha was 0%.

With `CCC(Nc1nc(N)nc(C(F)(F)F)n1)c1ccc(Cl)cc1` (stereo not shown) [drawing 142] as the compound, how does the “% damage, Amaranthus” value (Amaranthus [10]) read?
Its value is 100%.

And the “% damage, Viola” value (Viola; 250 g of ai./ha)?
The value was 100%.

And the “% damage, Chenopodium” value (Chenopodium; 250 g of ai./ha)?
The value was 100%.

What about the “% damage, Setaria” value (Setaria [8]; 250 g of ai./ha) of the same compound?
Its value is 100%.

And the “% damage, Stellaria” value (Stellaria)?
Its value is 100%.

What about the “% damage, Wheat” value (Wheat; 250 g of ai./ha) of the same compound?
The value was 10%.
